Measurements published in ChEMBL document CHEMBL4270648, “Molecular design, synthesis and biological evaluation of cage compound-based inhibitors of hepatitis C virus p7 ion channels” (Eur J Med Chem, 2018).

Key:
[1] = Cytotoxicity against calf heart cells assessed as reduction in cell viability by colorimetric method; format: cell-based, Bos taurus; conditions: cattle
[2] = Selectivity index, ratio of CC50 for calf heart cells to IC50 for BVDV VK-1 infected in calf heart cells; format: toxicity, cell-based; conditions: cattle, read-out: Ratio CC50/IC50
[3] = Inhibition of p7 ion channel in BVDV VK-1 infected in calf heart cells assessed as reduction in viral growth by colorimetric method; format: cell-based, Bovine viral diarrhea virus 1; conditions: Bovine viral diarrhea virus isolates and strains

SMILES	CC50 [1] [µM]	selectivity ratio [2]	IC50 [3] [µM]
CC(=O)NC(C)C12CC3CC(CC(C(=O)O)(C3)C1)C2 (centres undefined)	> 377	> 13.1	28.9
C[C@H](O)[C@H](N)C12CC3CC(CC(C3)C1)C2	> 407	> 4	103
CN(C)c1cc[n+](C23CC4CC(CC(C4)C2)C3)cc1	199	8.1	24.4
O=C1CCC(C23CC4CC(CC(C4)C2)C3)=NN1c1ccccc1	235	> 450	< 0.52
CSc1ncn(C2(c3ccccc3O)C3CC4CC(C3)CC2C4)n1 (centres undefined)	119	5.2	22.9
O=C(O)CC12CC3CC(O)(C1)CC(CC(=O)O)(C3)C2	> 373	> 3.2	116
CC1(c2ccccc2)CCCN(CCC23CC4CC(CC(C4)C2)C3)C1 (centres undefined)	86.7	28.7	3.02
O=S1(=O)OC23CC4CC(CC(C4)C2)C[C@H]3[C@@H]1CN1CCCCC1	> 295	> 1.8	163
c1ccc2[nH]cc(C34CC5CC(CC(C5)C3)C4)cc[nH]c2c1	128	6.3	20.3
CC12CC3(N)CC(CC(=O)O)(C1)CC(CC(=O)O)(C2)C3	> 315	> 2.7	118
C[C@@H]1N[C@H]1C12CC3CC(CC(C3)C1)C2	105	1.4	76.7
O=c1ccn(C23CC4CC(CC(C4)C2)C3)cc1	158	4.5	35.3
c1ccc2nc3c(nc2c1)C1CC2CC(C1)CC3C2	> 400	> 50.8	7.87
O=C(C[n+]1cccc2ccccc21)C12CC3CC(CC(C3)C1)C2	133	8.7	15.2
Cc1cccc[n+]1CCC12CC3CC(CC(C3)C1)C2	297	32	9.3
CCC1CC2CC3CC(C2)CC1(O)C3 (centres undefined)	403	95.2	4.24
Oc1noc2c1C1CC3CC(CC2C3)C1	> 487	> 82	5.94
CC(=O)NCC12CC3CC(C1)CC(CC(=O)O)(C3)C2	> 377	> 2.1	181
CC1(c2ccccc2)CCN(CCC23CC4CC(CC(C4)C2)C3)CC1	90.7	32.1	2.82
Oc1ccccc1C1(n2cncn2)C2CC3CC(C2)CC1C3 (centres undefined)	> 339	> 56.5	5.99
O/N=C1\C(=N\O)C2CC3CC(CC1C3)C2	480	142	3.38
O=c1cc[nH]cc1C12CC3CC(CC(C3)C1)C2	> 436	> 33.9	12.9
CC1=CCCN(CC(O)C23CC4CC(CC(C4)C2)C3)C1 (centres undefined)	190	7.5	25.2
O=C(C[n+]1ccccc1)C12CC3CC(CC(C3)C1)C2	> 297	> 3.9	75.9
O=C(O)CC12CC3(O)CC(CC(=O)O)(C1)CC(C(=O)O)(C3)C2	> 320	> 1.1	282
O=c1ccc(C23CC4CC(CC(C4)C2)C3)n[nH]1	> 434	> 21.8	20
c1ccc2c[n+](CCC34CC5CC(CC(C5)C3)C4)ccc2c1	83	1.5	56.6

SMILES	CC50 [1] [µM]	selectivity ratio [2]	IC50 [3] [µM]
c1ccc2c(c1)Oc1ncnn1C21C2CC3CC(C2)CC1C3 (centres undefined)	> 341	> 54.7	6.23
O=c1[nH]cc(C23CC4CC(CC(C4)C2)C3)cc1C12CC3CC(CC(C3)C1)C2	> 275	> 107	2.56
c1cc(OC23CC4CC(CC(C4)C2)C3)ccn1	290	7.8	37.4
O=C(NCc1ccccc1)C1C(=O)C2CC3CC(C2)CC1C3 (centres undefined)	> 336	> 5.1	66.6
O/N=C1/CC2CC3CC(C2)CC1C3	148	20.6	7.21
O=S1(=O)OC23CC4CC(CC(C4)C2)C[C@H]3[C@@H]1CN1CCOCC1	> 293	> 4.7	62.1
N#CC(C#N)=C(/C=C/N1CCOCC1)C12CC3CC(CC(C3)C1)C2	> 309	> 3.6	86.4
O=S1(=O)OC23CC4CC(CC(C4)C2)C[C@H]3[C@@H]1CNCc1ccccc1	96	1.7	56.5
NCC12CC3CC(C1)CC(CC(=O)O)(C3)C2	> 385	> 1	382
Cc1cccc[n+]1CC(=O)C12CC3CC(CC(C3)C1)C2	> 285	> 3.6	78.8
OC(CN1CCCc2ccccc21)C12CC3CC(CC(C3)C1)C2 (centres undefined)	> 321	> 1.5	213
O=c1[nH][nH]c2c1C1CC3CC(CC2C3)C1	> 485	> 12.2	39.7
CC1=NC(C)(C23CC4CC(CC(C4)C2)C3)CO1 (centres undefined)	168	5	33.4
CC(O)(CNC(=O)C(F)(F)F)C12CC3CC(CC(C3)C1)C2 (centres undefined)	259	3.4	75.4
CN(C)C1=NC2(c3ccccc3O1)C1CC3CC(C1)CC2C3 (centres undefined)	72.1	1	70.9
CC(=C(C#N)C#N)C12CC3CC(CC(C3)C1)C2	106	4.1	25.9
C1CN[C@H]2C3CC4CC(CC(C4)[C@H]2N1)C3	> 358	> 211	1.69
C1C2CC3CC1CC(C2)c1nc2c(nc13)C1CC3CC(C1)CC2C3	> 312	> 3.1	102
O=C1/C(=N/O)C2CC3CC(CC1C3)C2	> 518	> 2.9	177
O=C(O)C(Br)C12CC3CC(CC(O)(C3)C1)C2 (centres undefined)	> 346	> 1.8	193
C=C(COc1ccccc1C(=O)OCC)C12CC3CC(CC(C3)C1)C2	35.8	7.8	4.57
CCN(CC)C[C@H]1O[C@@H]1C12CC3CC(CC(C3)C1)C2 (relative stereo)	90.4	2.3	39.5
O=C([C@@H]([C@H](C[N+](=O)[O-])c1ccccc1)S(=O)(=O)c1ccccc1)C12CC3CC(CC(C3)C1)C2 (relative stereo)	> 215	> 114	1.89
C1CN(C[C@H]2O[C@@H]2C23CC4CC(CC(C4)C2)C3)CCO1 (relative stereo)	271	1.7	164
CCN(CC)C[C@H](Cl)[C@H](O)C12CC3CC(CC(C3)C1)C2 (relative stereo)	274	20.5	13.4
COP(=O)(OC)[C@@H](C(=O)C12CC3CC(CC(C3)C1)C2)[C@H](C[N+](=O)[O-])c1ccccc1 (relative stereo)	> 230	> 21.7	10.6
